Measured values reported in ChEMBL document CHEMBL1201862, “PubChem BioAssay data set” (2004).
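1) Cells in 96-well plates. 2) Compound, 48 h, 5 concentrations. 3) Linear interpolation between surrounding doses. 4) Unreached endpoint = highest concentration. GI50 is the concentration that inhibits growth by half.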 Calls of active or inactive are those of the source. Rule as the data show it: active = GI50 up to about 1.1 µM and inactive = higher.

Experiments:
Experiment in all cases: growth of human tumour cells (NCI), 48 h
786-0 = test system: 786-0
COLO 205 = test system: COLO 205
UO-31 = test system: UO-31
OVCAR-3 = test system: OVCAR-3
SK-MEL-28 = test system: SK-MEL-28
A498 = test system: A498
U-251 = test system: U-251
HOP-62 = test system: HOP-62
SNB-75 = test system: SNB-75
SK-MEL-5 = test system: SK-MEL-5
CCRF-CEM = test system: CCRF-CEM
HCT-116 = test system: HCT-116
IGROV-1 = test system: IGROV-1
HT-29 = test system: HT-29
OVCAR-8 = test system: OVCAR-8
UACC-257 = test system: UACC-257
HCC 2998 = test system: HCC 2998
SF-539 = test system: SF-539

Compound	GI50 (786-0)	GI50 (COLO 205)	GI50 (UO-31)	GI50 (OVCAR-3)	GI50 (SK-MEL-28)	GI50 (A498)	GI50 (U-251)	GI50 (HOP-62)	GI50 (SNB-75)	GI50 (SK-MEL-5)	GI50 (CCRF-CEM)	GI50 (HCT-116)	GI50 (IGROV-1)	GI50 (HT-29)	GI50 (OVCAR-8)	GI50 (UACC-257)	GI50 (HCC 2998)	GI50 (SF-539)
[O-][n+]1c2cc(CBr)c(CBr)cc2[n+]([O-])c2c(O)cccc21	1.58 µM (inactive)	1.77 µM (inactive)	1.93 µM (inactive)	2.22 µM (inactive)	1.76 µM (inactive)	12.5 µM (inactive)	2.9 µM (inactive)	20.1 µM (inactive)	2.11 µM (inactive)	2.1 µM (inactive)	0.265 µM (active)	1.53 µM (inactive)	4.02 µM (inactive)	2.01 µM (inactive)	1.82 µM (inactive)	2.38 µM (inactive)		
CC1=CCN(c2ccccn2)OC1c1ccccc1 (stereo not given)	> 100 µM (inactive)	> 100 µM (inactive)	59.8 µM (inactive)	> 100 µM (inactive)	> 100 µM (inactive)		> 100 µM (inactive)	> 100 µM (inactive)	> 100 µM (inactive)		> 100 µM (inactive)	> 100 µM (inactive)	> 100 µM (inactive)	> 100 µM (inactive)	> 100 µM (inactive)	> 100 µM (inactive)	> 100 µM (inactive)	> 100 µM (inactive)
O=C1N=C2Sc3ccc4ccccc4c3N2C1=O	19.8 µM (inactive)	29.6 µM (inactive)	16 µM (inactive)	18 µM (inactive)	27 µM (inactive)		20.5 µM (inactive)	19.2 µM (inactive)	23.6 µM (inactive)	22.4 µM (inactive)	31.3 µM (inactive)	17.7 µM (inactive)	19.1 µM (inactive)	32.7 µM (inactive)	18.4 µM (inactive)	28.1 µM (inactive)	27 µM (inactive)	18.8 µM (inactive)
COc1cc2c(c(OC)c1OC)-c1ccc(SC)c(=O)cc1[C@@H](NCc1cccc([N+](=O)[O-])c1)CC2	< 0.01 µM (active)	< 0.01 µM (active)	0.0366 µM (active)	< 0.01 µM (active)			< 0.01 µM (active)		11.1 µM (inactive)	< 0.01 µM (active)	< 0.01 µM (active)	< 0.01 µM (active)	< 0.01 µM (active)	< 0.01 µM (active)	< 0.01 µM (active)	< 0.01 µM (active)	< 0.01 µM (active)	< 0.01 µM (active)
O=C(Nc1nnc(S)[nH]1)C(=O)C1C(=O)Nc2ccccc2[S+]1[O-] (stereo not given)	> 100 µM (inactive)	> 100 µM (inactive)	> 100 µM (inactive)	> 100 µM (inactive)	> 100 µM (inactive)			> 100 µM (inactive)	> 100 µM (inactive)	> 100 µM (inactive)	> 100 µM (inactive)	> 100 µM (inactive)	> 100 µM (inactive)	> 100 µM (inactive)	> 100 µM (inactive)	> 100 µM (inactive)	> 100 µM (inactive)	> 100 µM (inactive)
CCOC(=O)C1C(=O)c2cccc(OC)c2C2COC(=O)N12 (stereo not given)	> 100 µM (inactive)	> 100 µM (inactive)	> 100 µM (inactive)	> 100 µM (inactive)	> 100 µM (inactive)		> 100 µM (inactive)	> 100 µM (inactive)	> 100 µM (inactive)	> 100 µM (inactive)	> 100 µM (inactive)	> 100 µM (inactive)	> 100 µM (inactive)	> 100 µM (inactive)	> 100 µM (inactive)	> 100 µM (inactive)	> 100 µM (inactive)	> 100 µM (inactive)
COc1ccc2oc(-c3ccc(OC)c(OC)c3OC)cc(=O)c2c1	72.4 µM (inactive)	52 µM (inactive)		34.7 µM (inactive)	62.2 µM (inactive)			70.3 µM (inactive)	48.3 µM (inactive)		35.2 µM (inactive)	34.6 µM (inactive)	83.9 µM (inactive)	48.2 µM (inactive)		55.6 µM (inactive)	52.7 µM (inactive)	31.2 µM (inactive)
